Source: patent US12479804B2, “Herbicidal compounds” (SYNGENTA CROP PROTECTION AG, priority 2019, dated 2025)

Experiments:
Assay in all cases: Glasshouse herbicidal test, pre- and post-emergence, percentage damage to the plant
Assay type in all cases: in vivo
Avena fatua (AVEFA) = conditions: 250 g/h, evaluated after 13 days; for AVEFA POST percentage damage caused to the plant (five-point scale): post-emergence; for AVEFA PRE percentage damage caused to the plant (five-point scale): pre-emergence
Experimental: (§1) Seeds of a variety of test species are sown in standard soil in pots (Lolium perenne (LOLPE), Setaria faberi (SETFA), Alopecurus myosuroides (ALOMY), Echinochloa crus-galli (ECHCG), Avena fatua (AVEFA)). After cultivation for one day (pre-emergence) or after 8 days cultivation (post-emergence) under controlled conditions in a glasshouse (at 24/16° C., day/night; 14 hours light; 65% humidity), the plants are sprayed with an aqueous spray solution derived from the formulation of the technical active ingredient in acetone/water (50:50) solution containing 0.5% Tween 20 (polyoxyethelyene sorbitan monolaurate, CAS RN 9005-64-5). Compounds are applied at 250 g/h. The test plants are then grown in a glasshouse under controlled conditions in a glasshouse (at 24/16° C., day/night; 14 hours light; 65% humidity) and watered twice daily. After 13 days for pre and post-emergence, the test is evaluated for the percentage damage caused to the plant. The biological activities are shown in the following table on a five-point scale (5=80-100%; 4=60-79%; 3=40-59%; 2=20-39%; 1=0-19%).

[1] = system: Alopecurus myosuroides (ALOMY); conditions: 250 g/h, evaluated after 13 days; for ALOMY POST percentage damage caused to the plant (five-point scale): post-emergence; for ALOMY PRE percentage damage caused to the plant (five-point scale): pre-emergence
Experimental: as §1

Setaria faberi (SETFA) = conditions: 250 g/h, evaluated after 13 days; for SETFA POST percentage damage caused to the plant (five-point scale): post-emergence; for SETFA PRE percentage damage caused to the plant (five-point scale): pre-emergence
Experimental: as §1

[2] = system: Echinochloa crus-galli (ECHCG); conditions: 250 g/h, evaluated after 13 days; for ECHCG POST percentage damage caused to the plant (five-point scale): post-emergence; for ECHCG PRE percentage damage caused to the plant (five-point scale): pre-emergence
Experimental: as §1

Lolium perenne (LOLPE) = conditions: 250 g/h, evaluated after 13 days; for LOLPE POST percentage damage caused to the plant (five-point scale): post-emergence; for LOLPE PRE percentage damage caused to the plant (five-point scale): pre-emergence
Experimental: as §1

CC#Cc1cc(C)c(C2C(=O)CC3(C=CN(C(=O)NC(C)(C)C)CC3)CC2=O)c(C)c1 (stereo not drawn) [Compound A53]
5 (5=80-100%): ALOMY POST percentage damage caused to the plant (five-point scale) [1] | ALOMY PRE percentage damage caused to the plant (five-point scale) [1] | SETFA POST percentage damage caused to the plant (five-point scale) (Setaria faberi (SETFA)) | SETFA PRE percentage damage caused to the plant (five-point scale) (Setaria faberi (SETFA)) | ECHCG POST percentage damage caused to the plant (five-point scale) [2] | ECHCG PRE percentage damage caused to the plant (five-point scale) [2] | LOLPE POST percentage damage caused to the plant (five-point scale) (Lolium perenne (LOLPE)) | LOLPE PRE percentage damage caused to the plant (five-point scale) (Lolium perenne (LOLPE))
2 (2=20-39%): AVEFA PRE percentage damage caused to the plant (five-point scale) (Avena fatua (AVEFA))
4 (4=60-79%): AVEFA POST percentage damage caused to the plant (five-point scale) (Avena fatua (AVEFA))

CC#Cc1cc(C)c(C2C(=O)CC3(C=CN(C(=O)NC(=O)C(C)(C)C)CC3)CC2=O)c(C)c1 (stereo not drawn) [Compound A54]
5 (5=80-100%): AVEFA POST percentage damage caused to the plant (five-point scale) (Avena fatua (AVEFA)) | AVEFA PRE percentage damage caused to the plant (five-point scale) (Avena fatua (AVEFA)) | ALOMY POST percentage damage caused to the plant (five-point scale) [1] | ALOMY PRE percentage damage caused to the plant (five-point scale) [1] | SETFA POST percentage damage caused to the plant (five-point scale) (Setaria faberi (SETFA)) | SETFA PRE percentage damage caused to the plant (five-point scale) (Setaria faberi (SETFA)) | ECHCG POST percentage damage caused to the plant (five-point scale) [2] | ECHCG PRE percentage damage caused to the plant (five-point scale) [2] | LOLPE POST percentage damage caused to the plant (five-point scale) (Lolium perenne (LOLPE)) | LOLPE PRE percentage damage caused to the plant (five-point scale) (Lolium perenne (LOLPE))

CC#Cc1cc(C)c(C2C(=O)CC3(C=CN(S(=O)(=O)CC)CC3)CC2=O)c(C)c1 (stereo not drawn) [Compound A55]
5 (5=80-100%): AVEFA POST percentage damage caused to the plant (five-point scale) (Avena fatua (AVEFA)) | AVEFA PRE percentage damage caused to the plant (five-point scale) (Avena fatua (AVEFA)) | ALOMY POST percentage damage caused to the plant (five-point scale) [1] | ALOMY PRE percentage damage caused to the plant (five-point scale) [1] | SETFA POST percentage damage caused to the plant (five-point scale) (Setaria faberi (SETFA)) | SETFA PRE percentage damage caused to the plant (five-point scale) (Setaria faberi (SETFA)) | ECHCG POST percentage damage caused to the plant (five-point scale) [2] | ECHCG PRE percentage damage caused to the plant (five-point scale) [2] | LOLPE POST percentage damage caused to the plant (five-point scale) (Lolium perenne (LOLPE)) | LOLPE PRE percentage damage caused to the plant (five-point scale) (Lolium perenne (LOLPE))

CC#Cc1cc(C)c(C2C(=O)CC3(C=CN(C(=O)C(F)F)CC3)CC2=O)c(C)c1 (stereo not drawn) [Compound A56]
5 (5=80-100%): AVEFA POST percentage damage caused to the plant (five-point scale) (Avena fatua (AVEFA)) | AVEFA PRE percentage damage caused to the plant (five-point scale) (Avena fatua (AVEFA)) | ALOMY POST percentage damage caused to the plant (five-point scale) [1] | ALOMY PRE percentage damage caused to the plant (five-point scale) [1] | SETFA POST percentage damage caused to the plant (five-point scale) (Setaria faberi (SETFA)) | SETFA PRE percentage damage caused to the plant (five-point scale) (Setaria faberi (SETFA)) | ECHCG POST percentage damage caused to the plant (five-point scale) [2] | ECHCG PRE percentage damage caused to the plant (five-point scale) [2] | LOLPE POST percentage damage caused to the plant (five-point scale) (Lolium perenne (LOLPE)) | LOLPE PRE percentage damage caused to the plant (five-point scale) (Lolium perenne (LOLPE))

CC#Cc1cc(C)c(C2C(=O)CC3(C=CN(C(=O)NC(=O)c4ccccn4)CC3)CC2=O)c(C)c1 (stereo not drawn) [Compound A57]
5 (5=80-100%): AVEFA POST percentage damage caused to the plant (five-point scale) (Avena fatua (AVEFA)) | ALOMY POST percentage damage caused to the plant (five-point scale) [1] | ALOMY PRE percentage damage caused to the plant (five-point scale) [1] | SETFA POST percentage damage caused to the plant (five-point scale) (Setaria faberi (SETFA)) | SETFA PRE percentage damage caused to the plant (five-point scale) (Setaria faberi (SETFA)) | ECHCG POST percentage damage caused to the plant (five-point scale) [2] | ECHCG PRE percentage damage caused to the plant (five-point scale) [2] | LOLPE POST percentage damage caused to the plant (five-point scale) (Lolium perenne (LOLPE)) | LOLPE PRE percentage damage caused to the plant (five-point scale) (Lolium perenne (LOLPE))
4 (4=60-79%): AVEFA PRE percentage damage caused to the plant (five-point scale) (Avena fatua (AVEFA))

CC#Cc1cc(C)c(C2C(=O)CC3(CCN(C(C)=O)C(C)C3)CC2=O)c(C)c1 (stereo not drawn) [Compound A58]
5 (5=80-100%): AVEFA POST percentage damage caused to the plant (five-point scale) (Avena fatua (AVEFA)) | AVEFA PRE percentage damage caused to the plant (five-point scale) (Avena fatua (AVEFA)) | ALOMY POST percentage damage caused to the plant (five-point scale) [1] | ALOMY PRE percentage damage caused to the plant (five-point scale) [1] | SETFA POST percentage damage caused to the plant (five-point scale) (Setaria faberi (SETFA)) | SETFA PRE percentage damage caused to the plant (five-point scale) (Setaria faberi (SETFA)) | ECHCG POST percentage damage caused to the plant (five-point scale) [2] | ECHCG PRE percentage damage caused to the plant (five-point scale) [2] | LOLPE POST percentage damage caused to the plant (five-point scale) (Lolium perenne (LOLPE)) | LOLPE PRE percentage damage caused to the plant (five-point scale) (Lolium perenne (LOLPE))
